{"source": "ChEMBL document CHEMBL5335821", "about": "“Antiviral Protein-Protein Interaction Inhibitors” (J Med Chem, 2024)", "key": {"[1]": {"test_system": "Ebolavirus", "experiment": "Antiviral activity against Ebola virus infected in human HeLa cells assessed as reduction in viral cytopathic effect", "type": "functional, organism-based", "conditions": "Orthoebolavirus"}, "[2]": {"test_system": "Chikungunya virus", "experiment": "Antiviral activity against CHIKV infected in Vero 76 cells assessed as reduction in cytopathic effect", "type": "functional, organism-based"}, "[3]": {"biological_target": "Spike glycoprotein/Angiotensin-converting enzyme 2 (Severe acute respiratory syndrome coronavirus 2, UniProt P0DTC2+Q9BYF1)", "sequence (Q9BYF1 18-805 limits assumed, other chains not shown)": "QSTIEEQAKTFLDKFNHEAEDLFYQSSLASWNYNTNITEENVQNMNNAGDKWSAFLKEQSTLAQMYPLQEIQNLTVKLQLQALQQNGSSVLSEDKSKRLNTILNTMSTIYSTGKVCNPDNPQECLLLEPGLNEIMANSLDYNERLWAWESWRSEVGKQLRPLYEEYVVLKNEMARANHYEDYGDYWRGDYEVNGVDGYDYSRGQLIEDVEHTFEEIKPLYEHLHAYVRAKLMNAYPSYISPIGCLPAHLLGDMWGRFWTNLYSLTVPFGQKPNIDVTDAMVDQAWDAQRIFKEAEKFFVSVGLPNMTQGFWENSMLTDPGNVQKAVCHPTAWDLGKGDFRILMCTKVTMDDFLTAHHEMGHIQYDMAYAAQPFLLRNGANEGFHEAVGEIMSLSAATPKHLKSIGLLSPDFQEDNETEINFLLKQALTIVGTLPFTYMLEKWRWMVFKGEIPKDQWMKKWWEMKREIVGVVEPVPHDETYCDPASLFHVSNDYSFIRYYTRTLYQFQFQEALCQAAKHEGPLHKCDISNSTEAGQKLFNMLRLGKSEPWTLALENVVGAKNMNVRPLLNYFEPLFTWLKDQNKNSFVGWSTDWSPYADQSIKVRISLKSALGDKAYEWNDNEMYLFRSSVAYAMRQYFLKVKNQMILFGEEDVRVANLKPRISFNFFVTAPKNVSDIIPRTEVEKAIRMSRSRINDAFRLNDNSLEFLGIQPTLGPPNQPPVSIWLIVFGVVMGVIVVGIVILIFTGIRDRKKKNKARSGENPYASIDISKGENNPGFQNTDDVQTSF", "experiment": "Inhibition of SARS-CoV-2 spike protein RBD- human ACE2 interaction incubated for 1 hr by colorimetric ELISA assay"}, "[4]": {"biological_target": "Replicase polyprotein 1ab (Severe acute respiratory syndrome-related coronavirus, UniProt P0C6X7)", "experiment": "Inhibition of SARS-CoV-1 Main Protease"}, "[5]": {"experiment": "Inhibition of MERS-CoV Main protease", "design": "species or system Middle East respiratory syndrome-related coronavirus"}, "[6]": {"biological_target": "Replicase polyprotein 1ab (Severe acute respiratory syndrome coronavirus 2, UniProt P0DTD1)", "experiment": "Inhibition of SARS-CoV-2 main protease"}, "[7]": {"experiment": "Inhibition of HCV RNA", "type": "functional, Hepacivirus hominis"}, "[8]": {"test_system": "Hepatitis C virus", "experiment": "Antiviral activity against HCV infected in human Huh7.5.1 cells assessed as decrease in viral infection", "type": "functional, organism-based, Hepacivirus hominis", "conditions": "Huh-7.5.1"}, "[9]": {"test_system": "Ebolavirus", "experiment": "Antiviral activity against pseudotyped Ebola virus infected in HeLa cells assessed as reduction in viral infection incubated for 48 hrs by firefly luciferase assay", "type": "functional, organism-based", "conditions": "Orthoebolavirus"}, "[10]": {"test_system": "dengue virus type 2", "experiment": "Antiviral activity agaisnt DENV-2 strain New Guinea C infected with hamster BHK-21 cells assessed as reduction in viral growth", "type": "functional, organism-based"}, "[11]": {"test_system": "Hepatitis C virus", "experiment": "Antiviral activity against HCV infected in Huh-7 assessed as reduction in viral RNA replication at 0.5 nM relative to control", "type": "functional, Hepacivirus hominis", "design": "scale not given: the % may be the effect or the level left"}, "[12]": {"test_system": "Hepatitis C virus", "experiment": "Antiviral activity against HCV infected in human Huh-7.5.1 cells assessed as reduction in viral infection incubated for 48 hrs", "type": "functional, organism-based, Hepacivirus hominis", "conditions": "Huh-7.5.1, 48 h"}, "[13]": {"test_system": "SARS-CoV-2", "experiment": "Antiviral activity against SARS-CoV-2", "type": "functional, organism-based, Severe acute respiratory syndrome coronavirus 2"}, "[14]": {"test_system": "Chikungunya virus", "experiment": "Antiviral activity against CHIKV infected in HEK293T cells", "type": "functional, organism-based", "conditions": "HEK-293T"}, "[15]": {"test_system": "Hepatitis C virus", "experiment": "Antiviral activity against HCV infected in Huh-7 assessed as inhibition of HCV RNA replication at 5 nM relative to control", "type": "functional, Hepacivirus hominis", "design": "scale not given: the % may be the effect or the level left"}, "[16]": {"test_system": "Hepatitis C virus", "experiment": "Antiviral activity against HCV infected in human Huh-7 cells assessed as reduction in viral replication", "type": "functional, organism-based, Hepacivirus hominis"}}, "note": "Where a SMILES comes first, the peptide text is derived from it."}
{"molecule": "O=C(CC12CC3CC(CC(C3)C1)C2)NCC(=O)N1CCN(Cc2ccccc2)CC1", "values": [{"measurement": "IC50", "setting": "[1]", "value": 1.6, "unit": "µM"}]}
{"molecule": "CCOC(=O)c1c(CSc2ccccc2)n(C)c2cc(Br)c(O)c(CN(C)C)c12", "note": "[UMIFENOVIR]", "values": [{"measurement": "IC50", "setting": "[2]", "value": "< 20.9", "unit": "µM"}]}
{"molecule": "Cc1ccc(C(=O)Nc2ccc(S(=O)(=O)O)c3cc(S(=O)(=O)O)cc(S(=O)(=O)O)c23)cc1NC(=O)c1cccc(NC(=O)Nc2cccc(C(=O)Nc3cc(C(=O)Nc4ccc(S(=O)(=O)O)c5cc(S(=O)(=O)O)cc(S(=O)(=O)O)c45)ccc3C)c2)c1", "note": "[SURAMIN]", "values": [{"measurement": "IC50", "setting": "[2]", "value": 5.68, "unit": "µM"}]}
{"molecule": "CN1C(=O)c2ccccc2[S+]([O-])c2cc([N+](=O)[O-])ccc2S1(=O)=O", "note": "(stereo not given)", "values": [{"measurement": "IC50", "setting": "[3]", "value": 0.67, "unit": "µM"}]}
{"molecule": "COC(=O)c1ccc(COc2ccccc2CN2CCN(C(=O)CNC(=O)CC34CC5CC(CC(C5)C3)C4)CC2)cc1", "values": [{"measurement": "IC50", "setting": "[1]", "value": 0.13, "unit": "µM"}]}
{"molecule": "Cc1cc2nc3s/c(=C/c4ccc(-c5cccc(C(=O)O)c5)o4)c(=O)n3c2cc1C", "values": [{"measurement": "IC50", "setting": "[4]", "value": 0.059, "unit": "µM"}, {"measurement": "IC50", "setting": "[5]", "value": 0.075, "unit": "µM"}, {"measurement": "IC50", "setting": "[6]", "value": 0.055, "unit": "µM"}]}
{"molecule": "COc1cc(C[C@@]2(O)C(=O)OC[C@@H]2Cc2ccc(OC)c(OC)c2)ccc1O", "values": [{"measurement": "IC50", "setting": "[7]", "value": 0.67, "unit": "µM"}]}
{"molecule": "CC(C)[C@H](NC(=O)[C@H](Cc1c[nH]c2ccccc12)NC(=O)[C@@H](NC(=O)[C@H](C)N)[C@@H](C)O)C(=O)N[C@@H](CS)C(=O)NCC(=O)N1CCC[C@H]1C(=O)N[C@@H](CS)C(=O)N[C@H](C(=O)O)[C@@H](C)O", "note": "(H-ATWVCGPCT-OH)", "values": [{"measurement": "IC50", "setting": "[8]", "value": 5.5, "unit": "µM"}]}
{"molecule": "FC(C1=Nc2ccccc2N=C(c2ccccc2)C1)C(F)(F)F", "note": "(stereo not given)", "values": [{"measurement": "IC50", "setting": "[9]", "value": 10, "unit": "µM"}]}
{"molecule": "Clc1ccc(-c2ccc(-c3nc(NCc4cccnc4)nc4ccccc34)s2)cc1", "values": [{"measurement": "EC50", "setting": "[10]", "value": 0.068, "unit": "µM"}]}
{"molecule": "CC[C@H](C)[C@H](NC(=O)[C@H](C)NC(=O)[C@H](Cc1c[nH]c2ccccc12)NC(=O)[C@H](CO)NC(=O)[C@H](C)N)C(=O)N[C@@H](CCCCN)C(=O)N[C@@H](Cc1c[nH]c2ccccc12)C(=O)N[C@@H](CCC(=O)O)C(=O)N[C@@H](Cc1ccc(O)cc1)C(=O)N[C@H](C(=O)N[C@H](C(=O)N[C@@H](CC(C)C)C(=O)N[C@@H](CC(C)C)C(=O)N[C@@H](Cc1ccccc1)C(=O)N[C@@H](CC(C)C)C(=O)N[C@@H](CC(C)C)C(=O)O)C(C)C)C(C)C", "note": "(H-ASWAIKWEYVVLLFLL-OH)", "values": [{"measurement": "Activity", "setting": "[11]", "value": 60, "unit": "%"}, {"measurement": "IC50", "setting": "[12]", "value": 51, "unit": "µM"}]}
{"molecule": "IVERMECTIN", "values": [{"measurement": "EC50", "setting": "[13]", "value": 4.11, "unit": "µM"}]}
{"molecule": "COc1cc(OC)c2c(c1)O[C@@]1(c3ccc(Br)cc3)[C@H](c3ccccc3)C[C@@H](O)[C@@]21O", "values": [{"measurement": "IC50", "setting": "[14]", "value": 0.0224, "unit": "µM"}]}
{"molecule": "CSCC[C@H](NC(=O)[C@H](Cc1c[nH]c2ccccc12)NC(=O)[C@@H](NC(=O)[C@H](CS)NC(=O)CNC(=O)[C@H](Cc1ccccc1)NC(=O)[C@H](Cc1c[nH]c2ccccc12)NC(=O)[C@H](CO)NC(=O)CNC(=O)[C@@H](N)CCC(N)=O)[C@@H](C)O)C(=O)N[C@@H](CC(N)=O)C(=O)N[C@@H](CO)C(=O)N[C@H](C(=O)NCC(=O)N[C@@H](Cc1ccccc1)C(=O)O)[C@@H](C)O", "values": [{"measurement": "Activity", "setting": "[15]", "value": 50, "unit": "%"}]}
{"molecule": "C[C@H]1O[C@@H](O[C@H]2CC[C@@]3(C)[C@@H](CC[C@]4(C)[C@@H]3C=CC3=C5CC(C)(C)CC[C@]5(CO)[C@H](O)C[C@]34C)[C@]2(C)CO)[C@H](O)[C@@H](O[C@@H]2O[C@H](CO)[C@@H](O)[C@H](O)[C@H]2O)[C@H]1O", "values": [{"measurement": "EC50", "setting": "[16]", "value": 20.7, "unit": "µM"}]}
{"molecule": "COc1c(NC(=O)C(=O)c2ccc(OCCN3CCOCC3)c3ccccc23)cc(C(C)(C)C)cc1NS(C)(=O)=O", "note": "[ITX-5061 FREE BASE]", "values": [{"measurement": "EC50", "setting": "[16]", "value": 0.0001, "unit": "µM"}]}
{"molecule": "COc1ccc2cc3[n+](cc2c1OC)CCc1cc2c(cc1-3)OCO2", "note": "[BERBERINE]", "values": [{"measurement": "EC50", "setting": "[16]", "value": 7.87, "unit": "µM"}]}
